According to patent US12010996B2, “Tris-substituted biguanide compounds and their uses” (priority 2018, dated 2024):
In brackets after ≈: the same amount, converted by molar mass.

Columns and labels:
Test in all cases: Antibacterial effectiveness testing, growth inhibition in BHI broth (absorbance 600 nm)
Conditions in all cases: 37° C., 24 h
[1] = test system: S. marcenes, ATCC-21639; type: cell-based
Method: (§1) The antibacterial effectiveness testing was run against 7 strains of bacteria using the following protocol. Protocol: […] Bacteria (either E. coli or P. aeruginosa or S. aureus or […] or K. pneumonia or A. baumanni or C. albicans) are added to all well except the control and incubated at 37° C. for 24 h. The absorbance was read at 600 nm. MIC90 was calculated as the concentration at which 90% growth inhibition is noticed. N=4 replicates for each compound and bacteria.

[2] = test system: E. coli, ATCC-8739; type: cell-based
Method: as §1

[3] = test system: C. albicans, ATCC1-0231; type: cell-based
Method: as §1

[4] = test system: K. pneumonia, ATCC-18804; type: cell-based
Method: as §1, with “protocol.” for “protocol. Protocol:”

[5] = test system: P. aeruginosa, ATCC-9027; type: cell-based
Method: as §1, with “protocol.” for “protocol. Protocol:”

[6] = test system: A. baumanni-ATCC-19606; type: cell-based
Method: as §1, with “protocol.” for “protocol. Protocol:”

[7] = test system: S. aeureus, ATCC 6538; type: cell-based, S. aureus
Method: as §1

[8] = * BHI not containing acetic acid/BSA, beginning 1000 μg/mL suspension
[9] = no asterisk (BHI containing acetic acid/BSA), beginning 1000 μg/mL suspension
[10] = no asterisk, beginning 1000 μg/mL in DMSO/Water

Compound	MIC (S. marcenes, ATCC-21639) [1, 8] [µg/mL]	MIC (S. marcenes, ATCC-21639) [1, 9] [µg/mL]	MIC (S. marcenes, ATCC-21639) [1, 10] [µg/mL]	MIC90 (E. coli, ATCC-8739) [2, 8] [µg/mL]	MIC90 (E. coli, ATCC-8739) [2, 9] [µg/mL]	MIC90 (E. coli, ATCC-8739) [2, 10] [µg/mL]	MIC (C. albicans, ATCC1-0231) [3, 9] [µg/mL]	MIC (C. albicans, ATCC1-0231) [3, 10] [µg/mL]	MIC (K. pneumonia, ATCC-18804) [4, 9] [µg/mL]	MIC (K. pneumonia, ATCC-18804) [4, 10] [µg/mL]	MIC90 (P. aeruginosa, ATCC-9027) [5, 8] [µg/mL]	MIC90 (P. aeruginosa, ATCC-9027) [5, 9] [µg/mL]	MIC90 (P. aeruginosa, ATCC-9027) [5, 10] [µg/mL]	MIC (A. baumanni-ATCC-19606) [6, 8] [µg/mL]	MIC (A. baumanni-ATCC-19606) [6, 9] [µg/mL]	MIC (A. baumanni-ATCC-19606) [6, 10] [µg/mL]	MIC (S. aeureus, ATCC 6538) [7, 8] [µg/mL]	MIC (S. aeureus, ATCC 6538) [7, 9] [µg/mL]	MIC (S. aeureus, ATCC 6538) [7, 10] [µg/mL]	MIC (K. pneumonia, ATCC-18804) [4, 8] [µg/mL]
N=C(NCCN(CCNC(=N)NC(=N)Nc1ccc(Cl)cc1)CCNC(=N)NC(=N)Nc1ccc(Cl)cc1)NC(=N)Nc1ccc(Cl)cc1 [USD 18]	3.12 (≈ 4.27 µM)	50 (≈ 68.5 µM)	12.5 (≈ 17.1 µM)	3.12 (≈ 4.27 µM)	3.15 (≈ 4.31 µM)	6.25 (≈ 8.56 µM)	6.25 (≈ 8.56 µM)	3.12 (≈ 4.27 µM)	12.5 (≈ 17.1 µM)	6.25 (≈ 8.56 µM)	6.25 (≈ 8.56 µM)	0.76 (≈ 1.04 µM)	0.76 (≈ 1.04 µM)	3.12 (≈ 4.27 µM)	6.25 (≈ 8.56 µM)	0.39 (≈ 0.534 µM)	0.78 (≈ 1.07 µM)	0.76 (≈ 1.04 µM)	0.76 (≈ 1.04 µM)	
N=C(NCCN(CCNC(=N)NC(=N)Nc1ccc(C(F)(F)F)cc1)CCNC(=N)NC(=N)Nc1ccc(C(F)(F)F)cc1)NC(=N)Nc1ccc(C(F)(F)F)cc1 [USD 19]	3.12 (≈ 3.76 µM)	100 (≈ 120 µM)		12.5 (≈ 15 µM)	315 (≈ 379 µM)		6.25 (≈ 7.52 µM)		25 (≈ 30.1 µM)		12.5 (≈ 15 µM)	3.15 (≈ 3.79 µM)		3.12 (≈ 3.76 µM)	1.5 (≈ 1.81 µM)		3.12 (≈ 3.76 µM)	1.5 (≈ 1.81 µM)		
Cl.Cl.N=C(NCCCCCCNC(=N)NC(=N)Nc1ccc(Cl)cc1)NC(=N)Nc1ccc(Cl)cc1 [USD 20, chlorhexidine dihydrochloride, reference compound]	6.25		3.25	0.78		1.5		12.5		3.12	25		1.5	25		0.39	0.78		0.76	25
